pIC50: −log10 of the molar value.
Key:
[1] = tested on: MRC-5 fibroblasts; experiment: ATP level (CellTiter-Glo); type: cell-based, human; conditions: 25-µM D, 40 µM 3-BP, 24 h
Description: (§1) To determine the ATP level in the cells, the CellTiter-Glo® Luminescent Cell Viability Assay (Promega) was used. This method is based on the ATP-dependent conversion of luciferin to the luminescent oxyluciferin. Briefly, cells were seeded in a white/clear bottom 96-well plate with a density of 1 × 10^4/well (SKOV3 and PEO1) or 7.5 × 10^3/well (MRC-5). After 24-h incubation, the cells were treated with 25-µM D, a IC50 concentration of 3-BP (SKOV3 and MRC-5: 40 µM and PEO1: 20 µM) and both compounds simultaneously. The ATP level was determined after 24-h exposure to the tested compounds. The plate was equilibrated at room temperature for approximately 25 minutes. Next, 100 µL of the CellTiter-Glo® Reagent was added to each well, and the plate was shaken for 2 minutes. Then, the plate was left at room temperature for 10 minutes, and the luminescence was measured in a Spark multimode microplate reader (Tecan Group LTD., Männedorf, Switzerland).

[2] = tested on: PEO1 cells; experiment: ATP level (CellTiter-Glo); type: cell-based, human; conditions: 25-µM D, 20 µM 3-BP, 24 h
Description: as §1

[3] = tested on: SKOV3 cells; experiment: ATP level (CellTiter-Glo); type: cell-based, human; conditions: 25-µM D, 40 µM 3-BP, 24 h
Description: as §1

[4] = tested on: MRC-5 fibroblasts; experiment: GSH content (OPA); type: cell-based, human; conditions: 25-µM D, 40 µM 3-BP, 24 h
Description: (§2) The content of reduced glutathione was assayed with OPA [63]. Briefly, the cells were seeded in wells of a transparent 96-well plate at a density of 7.5 × 10^3/well (MRC-5) or 1 × 10^4/well (cancer cells) and allowed to attach at 37 °C for 24 h. After 24-h treatment with the tested compounds, the medium was removed, the cells were washed with PBS (150 µL per well) and then added with 60 µL/well of cold redox quenching buffer (RQB) containing 20-mM HCl, 5% TCA, 5-mM DTPA and 10-mM L-ascorbic acid. The plate was shaken for 5 minutes and centrifuged for 5 minutes at 4000 rpm. Next, the supernatant was transferred into two 96-well black plates (“+NEM” and “–NEM”; 25 µL/well). Within the “+NEM” plate, 4 µL/well of freshly prepared 7.5-mM NEM in cold RQB buffer was added. Then, 1-M phosphate buffer (pH 7.0) was added into both plates (40 µL/well), and the plates were shaken for 5 min at 700 rpm. Finally, 160 µL/well of cold 0.1-M phosphate buffer (pH 6.8) and 25 µL/well of freshly prepared 0.5% OPA in methanol were added into both plates. Both plates were incubated for 30 minutes at room temperature with constant shaking. Fluorescence was then measured at 355/430 nm. The protein contents in the cell lysates were determined according to Lowry et al.. The concentration of reduced glutathione was determined by subtracting […] and calculated with respect to the protein content.

[5] = tested on: PEO1 cells; experiment: GSH content (OPA); type: cell-based, human; conditions: 25-µM D, 20 µM 3-BP, 24 h
Description: as §2

[6] = tested on: SKOV3 cells; experiment: GSH content (OPA); type: cell-based, human; conditions: 25-µM D, 40 µM 3-BP, 24 h
Description: as §2

[7] = tested on: PEO1 cells; experiment: Atto-488-phalloidin and Mitotracker labeling (confocal); type: cell-based, human; conditions: 24 h
Description: (§3) Cells were seeded on an 8-well chamber slide (Lab-Tek™ II Chamber Slide™ System cat. no. 154534, Thermo Scientific, Waltham, MA, USA) at a density of 2.5 × 10^4 cells/chamber and allowed to attach at 37 °C. Subsequently, PEO1 and SKOV3 cells were treated with 25-µM D, 20-µM or 40-µM 3-BP (depending on the cell line) or both substances together for 24 h. Following the treatment, the medium was removed and replaced with 200-nM solution of Mitotracker Deep Red FM (i) (cat. no. M22426, Thermo Scientific, Waltham, MA, USA) in PBS and incubated for 30 min; in a CO2 incubator, the cells were washed with PBS (300 μL/well) and fixed with 200-μL/well 3.7% formaldehyde for 10 min. Then, the cells were washed with PBS (200 μL/well), permeabilized with 0.1% Triton X-100 solution (200 μL/well) for 10 min and washed with PBS (700 μL/well).
(§4) Following the treatment, the medium was removed and replaced with 150 μL/well of phalloidin working solution (ii) (prepared according to the manufacturer’s protocols) and incubated for 60 min.
(§5) After staining i or ii, the fixed cells were washed again, 600-nM solution of DAPI in PBS was added (200 µL/well), the cells were incubated at room temperature for 60 minutes and their micrographs were taken using a Zeiss LSM 710 inverted confocal microscope (Oberkochen, Germany). The ratio of fluorescence intensity of the mitochondria and cytoskeleton (expressed as a mean gray value) was calculated using ImageJ software. The corrected total cell fluorescence (CTFT) per cell was calculated according to https://theolb.readthedocs.io/en/latest/imaging/measuring-cell-fluorescence-using-imagej.html.

[8] = tested on: SKOV3 cells; experiment: as above; type: cell-based, human; conditions: 25-µM D, 40-µM 3-BP, 24 h
Description: as §3, §4, §5

[9] = tested on: SKOV3 cells; experiment: Cell migration (scraped area closure); type: cell-based, human
Description: Ovarian cancer cells and human normal fibroblasts were seeded on a 24-well plate at a density of 7 × 10^4/well (PEO1), 6.5 × 10^4/well (SKOV3) and 6 × 10^4/well (MRC-5) in 700 µL of appropriate cell medium and cultured at 37 °C to reach 90–95% confluence. Then, the cells in the middle of the wells were scraped off using sterile pipette tips (100 µL), cell debris was removed by washing with medium containing 2% FBS and the tested compounds diluted with medium containing 2% FBS were added. Images of the scraped area were collected after 12 h and 24 h at 10× objective magnification using an Olympus CKX53 microscope with a U-TV0. 5XC-3 digital microscope camera. The obtained results were analyzed using ImageJ software. The percentage of scraped area closure was estimated as the ratio of area measured after 12- or 24-h incubation and the area at the beginning of the experiment.

[10] = tested on: LnCaP cells; parameters: method as in PMID 27462923; conditions: starting from a concentration of 50 µM; cited from earlier work
[11] = tested on: HCT-116 cells; parameters: method as in PMID 15680311; conditions: HCT-116, 50–200 µM; cited from earlier work
[12] = tested on: LoVo cells; parameters: method as in PMID 20494645; conditions: LoVo parent cell line; cited from earlier work

| Compound | ATP content [1] | ATP content [2] | ATP content [3] | GSH level [4] | GSH level [5] | GSH level [6] | increase in the intensity of staining with Atto-488-phalloidin with respect to the control ([7]; 20-µM 3-BP) [%] | decrease in the intensity of staining with Mitotracker Red with respect to the control ([7]; 25-µM D, 20-µM 3-BP) | decrease in the intensity of staining with Atto-488-phalloidin with respect to the control [8] | decrease in the intensity of staining with Mitotracker Red with respect to the control [8] | cell migration [9] | decrease in the intensity of staining with Atto-488-phalloidin with respect to the control ([7]; 25-µM D, 20-µM 3-BP) [%] | increase in the intensity of staining with Mitotracker Red with respect to the control ([7]; 25-µM D) | viability [10] | viability [11] | pIC50 [12] |
| --- | --- | --- | --- | --- | --- | --- | --- | --- | --- | --- | --- | --- | --- | --- | --- | --- |
| O=C(O)C(=O)CBr [3-BP, 3-bromopyruvic acid] | not affected | decrease | neither 3-BP nor D affected | neither 3-BP or D alone modified | decreased | increased | ~51 | about 7% | about 33% | about 39% | decreased | – | – | – | – | – |
| Oc1cc(O)c2cc(O)c(-c3cc(O)c(O)c(O)c3)[o+]c2c1 [Delphinidin chloride, 3,3′,4′,5,5′,7-hexahydroxyflavylium] | not affected | did not change | neither 3-BP nor D affected | neither 3-BP or D alone modified | did not affect | without effect | – | – | ~67% | ~94% | decreased | ~17 | about 7% | concentration-dependently decreased the viability | did not affect significantly the viability | 4.42 |
